Usually pEC50 stands for the negative decadic logarithm of the EC50, by convention in mol/L. In general, CC50 refers to the concentration at which the toxic effect on the cells reaches its halfway point.

pEC50: −log10 of the molar value. Where two headings read alike, the source gives them in different places.

The record followed here is publication PMC7998250, “Temperate Zone Plant Natural Products—A Novel Resource for Activity against Tropical Parasitic Diseases” (Pharmaceuticals, 2021).

The subject of data set [1] is 700022-resistant line of L. mexicana (r22) axenic amastigotes. The data set is described as follows: EC50 in 700022-resistant L. mexicana (r22) axenic amastigotes. The conditions noted are these: for r22 8 weeks RI (resistance index, EC50 in r22/EC50 in WT): 8 weeks of 700022 selection pressure. The data set is classed as cell-based, Leishmania mexicana. The procedure:
(§1) A 700022-resistant line of L. mexicana (r22) was generated using a previously reported method (Figure S3). […] All leishmanicidal sterols identified were assayed against r22 after 8 weeks of 700022 pressure and cross-resistance was found against all four compounds, each with a similar resistance index of between 4–5 (Figure 6c). Following 28 weeks of selection, the morphology of the r22 promastigotes was compared to that of WT (Figure 6d). […] The body area of both promastigotes and amastigotes was also assessed, noting a small (c 20%) decrease in the body area of r22 parasites compared to WT strains (Figure S3).
Figure 6 Comparison between wildtype and 700022-resistant (r22) L. mexicana cell lines. Log concentration versus normalised (compared to untreated control) growth curves for wildtype (WT) and corresponding 700022-selected (r22) L. mexicana (a) promastigotes and (b) axenic amastigotes. Error bars represent upper and lower limits of the StDev (n = 9). […] The resistance index (EC50 in r22/EC50 in WT) are shown for each compound. (d) Scanning electron micrographs of WT and r22 promastigotes illustrating the shortened flagellum in r22 parasites. (e) Analysis of flagellum length in WT and r22 promastigotes (n = 287 of each strain) reported using a box and whisker plot (boxes represents the 25–75th percent distribution with the mean as a horizontal line, whiskers represent the distribution of all values) with a statistically significant difference (Mann–Whitney U test, p-value < 2.2 × 10^−16). […] Error bars represent upper and lower limits of the StDev (n = 9). […] The resistance index (EC50 in r22/EC50 in WT) are shown for each compound. TEXT PRINTED IN THE PICTURE: (c) 700022: 4.1 | (c) 700107: 4.1 | (c) 700136: 5.3 | (c) 700240: 5.3 | (f) 700022: 42.1 | (f) Milt: 17.9 | (f) Pent: 0.75 | (f) AmpB: 1.22 DOUBTS OF THE COPYIST ABOUT THIS PICTURE: Panels c and f: the numbers printed above the bar pairs have no measure or unit printed with them in the picture.
(§2) L. mexicana parasites were grown in increasing concentrations of 700022 in a stepwise manner, as previously described. […] A dose response assay of the newly selected promastigotes was completed as stated above, with the exception of the seeding density of 1 × 10^5 cells/mL. At this point, the drug pressure was increased to the concentration of the new EC50 value.

For data set [2], the system named is activated monocyte cell line (THP-1). The data set can be described thus: Cytotoxicity CC50, differentiated THP-1, Alamar Blue. The conditions noted are these: for CC50: differentiated THP-1, 48 h, read-out: THP1 CC50. The data set is classed as cell-based, human.
Data set [3] concerns HepG2 cells. The data set is described as follows: Cytotoxicity CC50, HepG2, Alamar Blue. The conditions noted are these: read-out: HepG2 CC50; 48 h. In a few lines:
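Human hepatoma cells seeded at 1 × 10^5 cells/mL with two-fold serial compound dilutions, incubated 48 h at 37 °C, 5% CO2 in DMEM/10% FBS. Viability read by Alamar Blue. CC50 estimated from viability normalised to untreated controls versus log concentration.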

Data set [4] concerns L. mexicana r22 promastigotes. The data set is described as follows: EC50 in 700022-resistant L. mexicana (r22) promastigotes. The data set is classed as cell-based. The conditions noted are these: Leishmania mexicana, read-out: EC50 in r22 promastigotes, after 28 weeks of 700022 selection. How it is done:
as §1, §2

The mark [5] stands for this setting: Leishmania mexicana, read-out: r22 8 weeks EC50, r22 after 8 weeks of 700022 selection pressure.

Regarding `C/C(=C/C(=O)CC(C)C1CCC2(C)C3=CCC4C(C)(C)C(=O)CCC4(C)C3CCC12C)C(=O)O` (stereo not shown) [Compound 700240], the “r22 8 weeks RI (resistance index, EC50 in r22/EC50 in WT)” value in data set [1] is recorded as 5.3. For the same molecule, in data set [1] (setting [5]), the pEC50 is 5.57. In addition, the “selectivity index (THP-1 CC50 / L. mexicana EC50)” value in data set [2] (L. mexicana compared to THP-1) came out at 21. In addition, the CC50 in data set [2] amounted to 14 µM.
For `CC1=CC(O)(CC(C)C2(C)CCC3C4=CCC5C(C)(CCC(O)C5(C)C)C4=CCC32C)OC1=O` (stereo not shown) [Compound 700107], the “r22 8 weeks RI (resistance index, EC50 in r22/EC50 in WT)” value in data set [1] came out at 4.1. Also, the pEC50 in data set [1] (setting [5]) is 5.96.
In the case of `C=C1C(=O)OC2CC(C)C3C=CC(=O)C3(C)C(OC(C)=O)C12` (stereo not shown) [Compound 701155], the CC50 was 0.38 µM in data set [2] and 1.1 µM in data set [3].
For `CC1=CC(O)(CC(C)C2(C)CC=C3C4=CCC5C(C)(C)C(O)CCC5(C)C4CCC32C)OC1=O` (stereo not shown) [Compound 700022], in data set [1], the “r22 8 weeks RI (resistance index, EC50 in r22/EC50 in WT)” value came out at 4.1. Further, the negative logarithm of the EC50 (pEC50) is 6.00 in data set [1] (setting [5]); 5.00 in data set [1] (Leishmania mexicana, read-out: r22 28 weeks EC50, r22 after 28 weeks of 700022 selection pressure); 5.00 in data set [1] (read-out: r22 28 weeks EC50, r22 after 28 weeks of 700022 selection pressure); 4.07 in data set [4].
Regarding `C=C1C(=O)OC2CC(C)C3C=CC(=O)C3(C)C(OC(=O)C(C)CC)C12` (stereo not shown) [Compound 701158], the CC50 in data set [3] worked out at 0.81 µM.
Regarding `CC1=CC(O)(CC(C)C2(C)CC=C3C4=CCC5C(C)(C)C(=O)CCC5(C)C4CCC32C)OC1=O` (stereo not shown) [Compound 700136], the “r22 8 weeks RI (resistance index, EC50 in r22/EC50 in WT)” value in data set [1] was 5.3. Further, the pEC50 in data set [1] (setting [5]) is 5.96.
